For the assay, the target named is T1, human DP2 receptor (Homo sapiens, UniProt Q9Y5Y4).
T1 construct: expressed in transfected cells; host or cells: CHO-K1 FLP-In (Invitrogen, catalog no. R758-07), stably transfected
T1 sequence (Q9Y5Y4 1-395): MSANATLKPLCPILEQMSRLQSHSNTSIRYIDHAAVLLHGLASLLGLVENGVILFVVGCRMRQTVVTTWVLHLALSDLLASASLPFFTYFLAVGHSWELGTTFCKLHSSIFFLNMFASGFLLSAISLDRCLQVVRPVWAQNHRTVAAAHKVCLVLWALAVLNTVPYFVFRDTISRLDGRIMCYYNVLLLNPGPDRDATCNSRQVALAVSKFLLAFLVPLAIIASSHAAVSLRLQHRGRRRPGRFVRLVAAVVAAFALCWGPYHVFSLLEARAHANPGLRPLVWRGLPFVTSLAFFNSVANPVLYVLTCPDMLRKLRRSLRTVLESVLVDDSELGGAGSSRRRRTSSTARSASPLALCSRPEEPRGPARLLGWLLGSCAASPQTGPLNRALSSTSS
The experiment in a line: Prostaglandin D2 binding inhibition assay (scintillation proximity assay, 3H PGD2, membranes of transfected CHO cells). Conditions: SPA, 5.5 nM 3H PGD2, CHO-K1 FLP-In human DP2 membranes; upper limit determinable 30 μM; read-out: IC50 ranges for inhibition of PGD2 binding to human DP2. An outline of the steps:
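Membranes (5 μg) from CHO-K1 cells stably expressing human DP2 were mixed with WGA SPA beads and 5.5 nM 3H PGD2 in Tris buffer with 10 mM MgCl2, 100 mM NaCl, 0.1% BSA, plus compound. After 60 min at room temperature, CPM were read; IC50 from two-parameter nonlinear regression.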

These results are taken from patent US20110190336A1, “AZABENZIMIDAZOLONES” (CARA THERAPEUTICS, INC., priority 2008, published 2011).

Usually IC50 stands for the concentration that inhibits the measured activity by half. As to `CCCCOc1ccc(S(=O)(=O)N2CCC(n3c(=O)n(CC(=O)O)c4cccnc43)CC2)cc1` [Compound 98, 2-(3-(1-(4-butoxyphenylsulfonyl)piperidin-4-yl)-2-oxo-2,3-dihydro-1H-imidazo[4,5-b]pyridin-1-yl)acetic acid], the IC50 is less than 1000 nM.
In the case of `CCOc1ccc(S(=O)(=O)N2CCC(n3c(=O)n(CC(=O)O)c4cccnc43)CC2)cc1` [Compound 99, 2-(3-(1-(4-ethoxyphenylsulfonyl)piperidin-4-yl)-2-oxo-2,3-dihydro-1H-imidazo[4,5-b]pyridin-1-yl)acetic acid], the IC50 was in the range of 1000 to 10000 nM.
As to `CS(=O)(=O)c1ccccc1S(=O)(=O)N1CC[C@@H](n2c(=O)n(CC(=O)O)c3cccnc32)C1` [Compound 100, (R)-2-(3-(1-(2-(methylsulfonyl)phenylsulfonyl)pyrrolidin-3-yl)-2-oxo-2,3-dihydro-1H-imidazo[4,5-b]pyridin-1-yl)acetic acid], the 50% inhibitory concentration (IC50) is less than 1000 nM.
`O=C(O)Cn1c(=O)n([C@@H]2CCN(S(=O)(=O)c3ccc(F)cc3Cl)C2)c2ncccc21` [Compound 101, (R)-2-(3-(1-(2-chloro-4-fluorophenylsulfonyl)pyrrolidin-3-yl)-2-oxo-2,3-dihydro-1H-imidazo[4,5-b]pyridin-1-yl)acetic acid]: the IC50 was less than 1000 nM.
In the case of `O=C(O)Cn1c(=O)n([C@@H]2CCN(S(=O)(=O)c3ccc(Cl)cc3Cl)C2)c2ncccc21` [Compound 102, (R)-2-(3-(1-(2,4-dichlorophenylsulfonyl)pyrrolidin-3-yl)-2-oxo-2,3-dihydro-1H-imidazo[4,5-b]pyridin-1-yl)acetic acid], the IC50 was less than 1000 nM.
Take `Cc1ccc(S(=O)(=O)N2CC[C@@H](n3c(=O)n(CC(=O)O)c4cccnc43)C2)c(F)c1` [Compound 103, (R)-2-(3-(1-(2-fluoro-4-methylphenylsulfonyl)pyrrolidin-3-yl)-2-oxo-2,3-dihydro-1H-imidazo[4,5-b]pyridin-1-yl)acetic acid]: the IC50 was less than 1000 nM.
For `CS(=O)(=O)c1ccccc1S(=O)(=O)NC1CCC(n2c(=O)n(CC(=O)O)c3cccnc32)CC1` (stereo not drawn) [Compound 104, 2-(3-(4-(2-(methylsulfonyl)phenylsulfonamido)cyclohexyl)-2-oxo-2,3-dihydro-1H-imidazo[4,5-b]pyridin-1-yl)acetic acid], the IC50 fell in the range of 1000 to 10000 nM.
As to `O=C(O)Cn1c(=O)n(C2CCC(NS(=O)(=O)c3ccc(F)cc3Cl)CC2)c2ncccc21` (stereo not drawn) [Compound 105, 2-(3-(4-(2-chloro-4-fluorophenylsulfonamido)cyclohexyl)-2-oxo-2,3-dihydro-1H-imidazo[4,5-b]pyridin-1-yl)acetic acid], the IC50 lay in the range of 1000 to 10000 nM.
For the compound `O=C(O)Cn1c(=O)n(C2CCC(NS(=O)(=O)c3ccc(Cl)cc3Cl)CC2)c2ncccc21` (stereo not drawn) [Compound 106, 2-(3-(4-(2,4-dichlorophenylsulfonamido)cyclohexyl)-2-oxo-2,3-dihydro-1H-imidazo[4,5-b]pyridin-1-yl)acetic acid], the half-maximal inhibitory concentration (IC50) is 1000 to 10000 nM.
Take `Cc1ccc(S(=O)(=O)NC2CCC(n3c(=O)n(CC(=O)O)c4cccnc43)CC2)c(F)c1` (stereo not drawn) [Compound 107, 2-(3-(4-(2-fluoro-4-methylphenylsulfonamido)cyclohexyl)-2-oxo-2,3-dihydro-1H-imidazo[4,5-b]pyridin-1-yl)acetic acid]: the IC50 fell in the range of 1000 to 10000 nM.
With `CS(=O)(=O)c1ccccc1S(=O)(=O)N1CCC[C@H](n2c(=O)n(CC(=O)O)c3cccnc32)C1` [Compound 108, (S)-2-(3-(1-(2-(methylsulfonyl)phenylsulfonyl)piperidin-3-yl)-2-oxo-2,3-dihydro-1H-imidazo[4,5-b]pyridin-1-yl)acetic acid], the IC50 fell in the range of 1000 to 10000 nM.
Consider `O=C(O)Cn1c(=O)n([C@H]2CCCN(S(=O)(=O)c3ccc(Cl)cc3Cl)C2)c2ncccc21` [Compound 109, (S)-2-(3-(1-(2,4-dichlorophenylsulfonyl)piperidin-3-yl)-2-oxo-2,3-dihydro-1H-imidazo[4,5-b]pyridin-1-yl)acetic acid], for which the IC50 fell in the range of 1000 to 10000 nM.
The result for `Cc1ccc(S(=O)(=O)N2CCC[C@H](n3c(=O)n(CC(=O)O)c4cccnc43)C2)c(F)c1` [Compound 110, (S)-2-(3-(1-(2-fluoro-4-methylphenylsulfonyl)piperidin-3-yl)-2-oxo-2,3-dihydro-1H-imidazo[4,5-b]pyridin-1-yl)acetic acid] reads 1000 to 10000 nM.
In the case of `CS(=O)(=O)c1ccccc1S(=O)(=O)N1CCC(n2c(=O)n(CC(=O)O)c3cccnc32)C1` (stereo not drawn) [Compound 111, 2-(3-(1-(2-(methylsulfonyl)phenylsulfonyl)pyrrolidin-3-yl)-2-oxo-2,3-dihydro-1H-imidazo[4,5-b]pyridin-1-yl)acetic acid], the IC50 was less than 1000 nM.
Turning to `O=C(O)Cn1c(=O)n(C2CCN(S(=O)(=O)c3ccc(Cl)cc3Cl)C2)c2ncccc21` (stereo not drawn) [Compound 112, 2-(3-(1-(2,4-dichlorophenylsulfonyl)pyrrolidin-3-yl)-2-oxo-2,3-dihydro-1H-imidazo[4,5-b]pyridin-1-yl)acetic acid], the IC50 is 1000 to 10000 nM.
Take `CS(=O)(=O)c1ccccc1S(=O)(=O)N1CCC[C@@H](n2c(=O)n(CC(=O)O)c3cccnc32)C1` [Compound 113, (R)-2-(3-(1-(2-(methylsulfonyl)phenylsulfonyl)piperidin-3-yl)-2-oxo-2,3-dihydro-1H-imidazo[4,5-b]pyridin-1-yl)acetic acid]: the IC50 was less than 1000 nM.
Take `O=C(O)Cn1c(=O)n([C@@H]2CCCN(S(=O)(=O)c3ccc(F)cc3Cl)C2)c2ncccc21` [Compound 114, (R)-2-(3-(1-(2-chloro-4-fluorophenylsulfonyl)piperidin-3-yl)-2-oxo-2,3-dihydro-1H-imidazo[4,5-b]pyridin-1-yl)acetic acid]: the IC50 was less than 1000 nM.
Turning to `O=C(O)Cn1c(=O)n([C@@H]2CCCN(S(=O)(=O)c3ccc(Cl)cc3Cl)C2)c2ncccc21` [Compound 115, (R)-2-(3-(1-(2,4-dichlorophenylsulfonyl)piperidin-3-yl)-2-oxo-2,3-dihydro-1H-imidazo[4,5-b]pyridin-1-yl)acetic acid], the half-maximal inhibitory concentration (IC50) is less than 1000 nM.
Consider `Cc1ccc(S(=O)(=O)N2CCC[C@@H](n3c(=O)n(CC(=O)O)c4cccnc43)C2)c(F)c1` [Compound 116, (R)-2-(3-(1-(2-fluoro-4-methylphenylsulfonyl)piperidin-3-yl)-2-oxo-2,3-dihydro-1H-imidazo[4,5-b]pyridin-1-yl)acetic acid], for which the 50% inhibitory concentration (IC50) was less than 1000 nM.
Regarding `Cc1ccnc2c1n(CC(=O)O)c(=O)n2C1CCN(S(=O)(=O)c2ccccc2S(C)(=O)=O)CC1` [Compound 117, 2-(7-methyl-3-(1-(2-(methylsulfonyl)phenylsulfonyl)piperidin-4-yl)-2-oxo-2,3-dihydro-1H-imidazo[4,5-b]pyridin-1-yl)acetic acid], the IC50 is greater than 30000 nM.
For `Cc1ccc(S(=O)(=O)N2CCC(n3c(=O)n(CC(=O)O)c4c(C)ccnc43)CC2)c(F)c1` [Compound 118, 2-(3-(1-(2-fluoro-4-methylphenylsulfonyl)piperidin-4-yl)-7-methyl-2-oxo-2,3-dihydro-1H-imidazo[4,5-b]pyridin-1-yl)acetic acid] the value was greater than 30000 nM; for `Cc1cc(F)ccc1S(=O)(=O)N1CCC(n2c(=O)n(CC(=O)O)c3c(C)ccnc32)CC1` [Compound 119, 2-(3-(1-(4-fluoro-2-methylphenylsulfonyl)piperidin-4-yl)-7-methyl-2-oxo-2,3-dihydro-1H-imidazo[4,5-b]pyridin-1-yl)acetic acid], greater than 30000 nM; for `Cc1ccnc2c1n(CC(=O)O)c(=O)n2C1CCN(S(=O)(=O)c2ccc(F)cc2Cl)CC1` [Compound 120, 2-(3-(1-(2-chloro-4-fluorophenylsulfonyl)piperidin-4-yl)-7-methyl-2-oxo-2,3-dihydro-1H-imidazo[4,5-b]pyridin-1-yl)acetic acid], greater than 30000 nM.
As for `Cc1ccnc2c1n(CC(=O)O)c(=O)n2C1CCN(S(=O)(=O)c2ccccc2Cl)CC1` [Compound 121, 2-(3-(1-(2-chlorophenylsulfonyl)piperidin-4-yl)-7-methyl-2-oxo-2,3-dihydro-1H-imidazo[4,5-b]pyridin-1-yl)acetic acid], the IC50 was greater than 30000 nM.
In the case of `Cc1ccnc2c1n(CC(=O)O)c(=O)n2C1CCN(S(=O)(=O)c2ccc(Cl)cc2Cl)CC1` [Compound 122, 2-(3-(1-(2,4-dichlorophenylsulfonyl)piperidin-4-yl)-7-methyl-2-oxo-2,3-dihydro-1H-imidazo[4,5-b]pyridin-1-yl)acetic acid], the IC50 was greater than 30000 nM.
As for `Cc1cnc2c(c1)n(CC(=O)O)c(=O)n2C1CCN(S(=O)(=O)c2ccccc2S(C)(=O)=O)CC1` [Compound 123, 2-(6-methyl-3-(1-(2-(methylsulfonyl)phenylsulfonyl)piperidin-4-yl)-2-oxo-2,3-dihydro-1H-imidazo[4,5-b]pyridin-1-yl)acetic acid], the IC50 was greater than 30000 nM.
Regarding `Cc1ccc(S(=O)(=O)N2CCC(n3c(=O)n(CC(=O)O)c4cc(C)cnc43)CC2)c(F)c1` [Compound 124, 2-(3-(1-(2-fluoro-4-methylphenylsulfonyl)piperidin-4-yl)-6-methyl-2-oxo-2,3-dihydro-1H-imidazo[4,5-b]pyridin-1-yl)acetic acid], the IC50 fell in the range of 1000 to 10000 nM.
